In PubChem BioAssay AID1259407 (Chemical Carcinogenesis Research Information System (CCRIS), 2018) one finds mutagenic call data, which are given here for nine compounds.

Calls of active or inactive are those of the source. How the calls were made is not given here.

This data set relates to CCRIS mutagenicity, Ames/micronucleus/aberration tests. The data set is described as follows: CCRIS mutagenicity studies.
Where [1] appears, read: Test System: AMES SALMONELLA TYPHIMURIUM, Strain/Indicator: TA98, Metabolic Activation: NONE, Method: STANDARD PLATE.
The mark [2] stands for this setting: Test System: AMES SALMONELLA TYPHIMURIUM, Strain/Indicator: TA100, Metabolic Activation: NONE, Method: STANDARD PLATE.
[3] abbreviates: Test System: AMES SALMONELLA TYPHIMURIUM, Strain/Indicator: TA102, Metabolic Activation: NONE, Method: STANDARD PLATE.
[4] abbreviates: Test System: AMES SALMONELLA TYPHIMURIUM, Strain/Indicator: TA1537, Metabolic Activation: NONE, Method: STANDARD PLATE.
Setting [5] is: Test System: CHINESE HAMSTER V-79, Strain/Indicator: V-79 (HGPRT)/6-THIOGUANINE, Metabolic Activation: NONE.
[6] abbreviates: Test System: AMES SALMONELLA TYPHIMURIUM, Strain/Indicator: TA98, Metabolic Activation: NONE, Method: PREINCUBATION
The mark [7] stands for this setting: Test System: AMES SALMONELLA TYPHIMURIUM, Strain/Indicator: TA100, Metabolic Activation: NONE, Method: PREINCUBATION

With `CCN(CC)c1ccc(N=Nc2c(Cl)cc([N+](=O)[O-])cc2[N+](=O)[O-])cc1`, the mutagenic call by setting is: under setting [1], “inactive; negative”; (Test System: AMES SALMONELLA TYPHIMURIUM, Strain/Indicator: TA98, Metabolic Activation: RAT, LIVER, S-9, AROCLOR 1254, Method: STANDARD PLATE) “active; positive”; under setting [2], “active; positive”; (Test System: AMES SALMONELLA TYPHIMURIUM, Strain/Indicator: TA100, Metabolic Activation: RAT, LIVER, S-9, AROCLOR 1254, Method: STANDARD PLATE) “active; positive”; under setting [3], “inactive; negative”; (Test System: AMES SALMONELLA TYPHIMURIUM, Strain/Indicator: TA102, Metabolic Activation: RAT, LIVER, S-9, AROCLOR 1254, Method: STANDARD PLATE) “active; positive”. Besides, the mutagenic call reads like this: (Test System: AMES SALMONELLA TYPHIMURIUM, Strain/Indicator: TA1535, Metabolic Activation: NONE, Method: STANDARD PLATE) “inactive; negative”; (Test System: AMES SALMONELLA TYPHIMURIUM, Strain/Indicator: TA1535, Metabolic Activation: RAT, LIVER, S-9, AROCLOR 1254, Method: STANDARD PLATE) “active; positive”; under setting [4], “inactive; negative”; (Test System: AMES SALMONELLA TYPHIMURIUM, Strain/Indicator: TA1537, Metabolic Activation: RAT, LIVER, S-9, AROCLOR 1254, Method: STANDARD PLATE) “active; positive”; under setting [5], “inactive; negative”; (Test System: CHINESE HAMSTER V-79, Strain/Indicator: V-79 (HGPRT)/6-THIOGUANINE, Metabolic Activation: RAT, LIVER, S-9, AROCLOR 1254) “inactive; negative”. Besides, the mutagenic call (Test System: CHINESE HAMSTER V-79, Strain/Indicator: V-79/8-AZAGUANINE, Metabolic Activation: RAT, LIVER, S-9, AROCLOR 1254) is “inactive; negative”; the mutagenic call (Test System: CHINESE HAMSTER V-79, Strain/Indicator: V-79/8-AZAQUANINE, Metabolic Activation: NONE) is “inactive; negative”; the mutagenic call (Test System: UDS RAT HEPATOCYTES, Strain/Indicator: THY INCORP, Metabolic Activation: NONE, Method: AUTORADIOGRAPHY) was “inactive; negative”.

Consider `c1cnc2c3c(ccc2c1)CC[C@H]1O[C@@H]31`, for which, under setting [2], the mutagenic call was “active; positive”.

In the case of `Fc1ccc(CN2C3c4ccccc4-c4ccccc4C32)cc1` (configuration not stated), the mutagenic call under setting [2] is “active; positive”.

Regarding `CN(Cc1cnc2nc(N)nc(N)c2n1)c1ccc(C(=O)N[C@@H](CCC(=O)O)C(=O)O)cc1`, the mutagenic call is “inactive; negative” (End Point: IN VITRO MICRONUCLEUS, Test System: V79 CELLS, Metabolic Activation: NONE); “active; positive (structural changes)” (End Point: IN VIVO CHROMOSOMAL ABERRATIONS, Test System: BONE MARROW, Species: MOUSE, Strain/Sex: SWISS/MALE, FEMALE, Route: INTRAPERITONEAL); “active; positive” (End Point: IN VIVO MICRONUCLEUS, Test System: BONE MARROW, Species: MOUSE, Strain/Sex: SWISS/MALE, FEMALE, Route: INTRAPERITONEAL); “active; positive (p<0.001)” (End Point: In vitro micronucleus, Test System: Human lymphoblastoid TK6 cells, Metabolic Activation: None); “inactive; negative” under setting [6]; “inactive; negative” under setting [1]. Also, the mutagenic call is, setting by setting: (Test System: AMES SALMONELLA TYPHIMURIUM, Strain/Indicator: TA98, Metabolic Activation: S-9, Method: PREINCUBATION) “inactive; negative”; (Test System: AMES SALMONELLA TYPHIMURIUM, Strain/Indicator: TA98, Metabolic Activation: S-9, Method: STANDARD PLATE) “inactive; negative”; under setting [7], “inactive; negative”; under setting [2], “inactive; negative”; (Test System: AMES SALMONELLA TYPHIMURIUM, Strain/Indicator: TA100, Metabolic Activation: S-9, Method: PREINCUBATION) “inactive; negative”; (Test System: AMES SALMONELLA TYPHIMURIUM, Strain/Indicator: TA100, Metabolic Activation: S-9, Method: STANDARD PLATE) “inactive; negative”. Further, the mutagenic call was “inactive; negative” under setting [3]; “inactive; negative” under setting [4]; “inactive; negative” under setting [5]; “inactive; negative” (Test System: CHINESE HAMSTER V-79, Strain/Indicator: V-79/6-THIOGUANINE, Metabolic Activation: NONE, Method: SUSPENSION/PLATE); “inactive; negative” (Test System: CHINESE HAMSTER V-79, Strain/Indicator: V-79/6-THIOGUANINE, Metabolic Activation: RAT, LIVER, HEPATOCYTES, Method: SUSPENSION/PLATE); “inactive; negative” (Test System: E. COLI, Strain/Indicator: WP2 (HCR), Metabolic Activation: NONE, Method: STANDARD PLATE). The mutagenic call (Test System: E. COLI, Strain/Indicator: WP2 (HCR), Metabolic Activation: S-9, Method: STANDARD PLATE) is “inactive; negative”; the mutagenic call (Test System: E. COLI, Strain/Indicator: WP2, Metabolic Activation: NONE, Method: STANDARD PLATE) is “active; positive”; the mutagenic call (Test System: MOUSE LYMPHOMA, Strain/Indicator: L5178Y (TK+/TK-), Metabolic Activation: NONE, Method: MICROWELL) is “active; positive”; the mutagenic call (Test System: MOUSE LYMPHOMA, Strain/Indicator: L5178Y (TK+/TK-), Metabolic Activation: NONE, Method: SUSPENSION/PLATE) was “active; positive”; the mutagenic call (Test System: MOUSE LYMPHOMA, Strain/Indicator: L5178Y (TK+/TK-), Metabolic Activation: RAT, LIVER, S-9, AROCLOR 1254, Method: SUSPENSION/PLATE) is “active; positive”; the mutagenic call (Test System: MOUSE LYMPHOMA, Strain/Indicator: L5178Y (TK+/TK-), Metabolic Activation: S-9, Method: MICROWELL) is “active; positive”.

As to `c1ccc2c(c1)-c1cc3ccccc3c3cc4c(c-2c13)CCCC4`, where the note is “Test System: AMES SALMONELLA TYPHIMURIUM, Strain/Indicator: TA100, Metabolic Activation: RAT, LIVER, S-9, 3-METHYLCHOLANTHRENE, Method: STANDARD PLATE”, the mutagenic call was “active; positive”.

`O.O.O.O=C([O-])COc1ccccc1.O=C([O-])COc1ccccc1.[Cu+2]`: the mutagenic call runs as follows: (Test System: AMES SALMONELLA TYPHIMURIUM, Strain/Indicator: TA97, Metabolic Activation: NONE, Method: PREINCUBATION) “inactive; negative”; (Test System: AMES SALMONELLA TYPHIMURIUM, Strain/Indicator: TA97, Metabolic Activation: RAT, LIVER, S-9, AROCLOR 1254, Method: PREINCUBATION) “inactive; negative”; under setting [7], “inactive; negative”; (Test System: AMES SALMONELLA TYPHIMURIUM, Strain/Indicator: TA100, Metabolic Activation: RAT, LIVER, S-9, AROCLOR 1254, Method: PREINCUBATION) “inactive; negative”; (Test System: AMES SALMONELLA TYPHIMURIUM, Strain/Indicator: TA102, Metabolic Activation: NONE, Method: PREINCUBATION) “inactive; negative”; (Test System: AMES SALMONELLA TYPHIMURIUM, Strain/Indicator: TA102, Metabolic Activation: RAT, LIVER, S-9, AROCLOR 1254, Method: PREINCUBATION) “inactive; negative”.

On to `CC(=O)Nc1nc2c3cccnc3ccc2n1C`, for which the mutagenic call is “inactive; negative” (Test System: AMES SALMONELLA TYPHIMURIUM, Strain/Indicator: TA98(1,8-DNP6), Metabolic Activation: RAT, LIVER, S-9, Method: STANDARD PLATE); “active; positive” (Test System: AMES SALMONELLA TYPHIMURIUM, Strain/Indicator: TA98(NR), Metabolic Activation: RAT, LIVER, S-9, Method: STANDARD PLATE); “active; positive” (Test System: AMES SALMONELLA TYPHIMURIUM, Strain/Indicator: TA98, Metabolic Activation: RAT, LIVER, S-9, Method: STANDARD PLATE); “active; positive” (Test System: AMES SALMONELLA TYPHIMURIUM, Strain/Indicator: TA98, Method: STANDARD PLATE).

On to `O=C1C=CC[C@H](/C=C/c2ccccc2)O1`, for which the mutagenic call runs as follows: (End Point: IN VITRO CHROMOSOMAL ABERRATIONS, Test System: CHO CELLS, Metabolic Activation: NONE) “active; positive (structural changes)”; (End Point: IN VITRO CHROMOSOMAL ABERRATIONS, Test System: CHO CELLS, Metabolic Activation: RAT, LIVER, S-9, AROCLOR 1254) “active; positive (structural changes)”.

For `Cc1ccc([N+](=O)[O-])c(C)c1`, the mutagenic call is “inactive; negative” under setting [6]; “inactive; negative” (Test System: AMES SALMONELLA TYPHIMURIUM, Strain/Indicator: TA98, Metabolic Activation: RAT, LIVER, S-9, KANECHLOR 500, Method: PREINCUBATION); “inactive; negative” under setting [7].
